{"source": "paper PMC10764104", "about": "“Discovery of Molecular Glue Degraders via Isogenic Morphological Profiling” (ACS Chemical Biology, 2023)", "key": {"[1]": {"experiment": "CellTiter-Glo cytotoxicity of selected compounds (manual, 72 h)", "type": "cell-based, human", "conditions": "human, up to 10 μM", "procedure": "Assessment of gene expression and essentiality in RKO WT\nFluorescence Polarization‐based competition assay\nEC50 values were calculated with GraphPad Prism […]\nthe FP value of free tracer. […]\ninstructions. […] For the screening of the whole SuFEx\nData visualization was done with seaborn\n(https://seaborn.pydata.org, version 0.12.2). […]\ncompounds. (F) Analysis of the cytotoxicity of compounds with treatment‐centric features related to FL2‐ […]\nSynthesis and in Vitro Evaluation of Diverse Heterocyclic Diphenolic Compounds as Inhibitors of DYRK1A.\n(7) Zhang, J.‐H.; Chung, T. D. Y.; Oldenburg, K. R. A Simple Statistical Parameter for Use in Evaluation and Validation of High Throughput Screening Assays. SLAS Discov."}, "GSPT2 [2]": {"molecular_target": "T1, GSPT2 (Homo sapiens, UniProt Q8IYD1+Q96SW2)", "T1 construct": "endogenous in cells; host or cells: RKO WT or RKO CRBN KO", "T1 sequence (Q8IYD1 whole entry)": "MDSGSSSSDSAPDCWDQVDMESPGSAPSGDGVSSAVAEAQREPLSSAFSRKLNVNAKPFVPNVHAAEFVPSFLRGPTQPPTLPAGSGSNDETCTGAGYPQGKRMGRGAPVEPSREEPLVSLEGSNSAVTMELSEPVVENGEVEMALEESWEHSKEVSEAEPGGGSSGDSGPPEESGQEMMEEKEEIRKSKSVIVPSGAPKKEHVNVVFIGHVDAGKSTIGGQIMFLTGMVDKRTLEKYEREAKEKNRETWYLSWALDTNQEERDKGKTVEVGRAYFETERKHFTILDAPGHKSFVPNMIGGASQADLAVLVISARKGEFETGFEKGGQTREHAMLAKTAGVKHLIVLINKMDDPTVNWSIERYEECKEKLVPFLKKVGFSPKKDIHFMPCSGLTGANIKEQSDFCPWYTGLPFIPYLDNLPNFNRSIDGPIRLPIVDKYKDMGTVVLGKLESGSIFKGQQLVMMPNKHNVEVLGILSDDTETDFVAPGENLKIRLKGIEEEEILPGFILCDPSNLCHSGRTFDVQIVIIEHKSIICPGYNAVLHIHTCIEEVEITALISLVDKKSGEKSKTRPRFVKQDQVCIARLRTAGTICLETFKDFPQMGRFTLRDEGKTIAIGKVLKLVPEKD", "T1 sequence (Q96SW2 whole entry)": "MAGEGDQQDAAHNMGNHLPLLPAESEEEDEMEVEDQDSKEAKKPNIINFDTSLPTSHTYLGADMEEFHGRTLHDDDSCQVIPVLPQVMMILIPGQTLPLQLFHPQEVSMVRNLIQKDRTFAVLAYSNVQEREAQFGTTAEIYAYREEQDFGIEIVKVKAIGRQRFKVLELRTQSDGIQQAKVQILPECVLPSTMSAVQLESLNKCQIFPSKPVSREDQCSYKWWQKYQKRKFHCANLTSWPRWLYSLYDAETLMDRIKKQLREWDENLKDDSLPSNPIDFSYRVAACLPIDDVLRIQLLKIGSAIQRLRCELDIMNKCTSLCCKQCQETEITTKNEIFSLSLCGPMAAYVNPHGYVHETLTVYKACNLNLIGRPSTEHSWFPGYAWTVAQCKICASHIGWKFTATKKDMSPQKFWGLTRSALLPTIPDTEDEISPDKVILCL", "T1 sequence (Q16531 2-1140 partner limits assumed)": "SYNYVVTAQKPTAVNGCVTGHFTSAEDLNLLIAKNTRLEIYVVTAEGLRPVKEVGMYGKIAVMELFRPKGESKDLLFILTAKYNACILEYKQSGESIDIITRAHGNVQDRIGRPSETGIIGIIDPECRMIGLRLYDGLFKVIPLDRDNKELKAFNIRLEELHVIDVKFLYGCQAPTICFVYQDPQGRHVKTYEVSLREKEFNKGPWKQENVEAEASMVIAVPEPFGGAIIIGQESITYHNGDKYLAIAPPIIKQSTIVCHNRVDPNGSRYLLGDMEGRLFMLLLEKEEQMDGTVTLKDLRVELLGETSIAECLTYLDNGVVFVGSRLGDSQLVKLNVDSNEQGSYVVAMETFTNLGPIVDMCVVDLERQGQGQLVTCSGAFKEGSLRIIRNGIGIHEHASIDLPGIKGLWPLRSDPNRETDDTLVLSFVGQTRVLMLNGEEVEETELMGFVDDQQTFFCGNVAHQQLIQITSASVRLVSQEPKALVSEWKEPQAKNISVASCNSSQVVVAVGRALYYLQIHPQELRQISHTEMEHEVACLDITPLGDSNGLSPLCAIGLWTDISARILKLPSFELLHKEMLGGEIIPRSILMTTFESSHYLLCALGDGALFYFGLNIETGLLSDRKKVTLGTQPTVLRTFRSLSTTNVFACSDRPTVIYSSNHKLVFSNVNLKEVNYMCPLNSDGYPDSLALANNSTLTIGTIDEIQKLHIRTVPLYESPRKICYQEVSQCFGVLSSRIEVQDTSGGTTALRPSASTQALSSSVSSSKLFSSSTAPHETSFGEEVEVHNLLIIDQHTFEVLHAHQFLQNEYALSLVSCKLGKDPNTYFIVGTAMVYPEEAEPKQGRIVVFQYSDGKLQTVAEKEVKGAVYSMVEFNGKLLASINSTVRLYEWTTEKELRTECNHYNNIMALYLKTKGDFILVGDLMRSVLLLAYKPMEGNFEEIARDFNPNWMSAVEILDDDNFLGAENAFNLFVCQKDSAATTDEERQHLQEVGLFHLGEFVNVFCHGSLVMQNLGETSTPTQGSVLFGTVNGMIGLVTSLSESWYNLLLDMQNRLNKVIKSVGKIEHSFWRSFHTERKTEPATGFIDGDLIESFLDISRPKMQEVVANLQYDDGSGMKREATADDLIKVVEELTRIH", "experiment": "Western blot analysis of GSPT1 and GSPT2 degradation in RKO WT or CRBN KO cells", "type": "cell-based", "procedure": "(§1) (A) Structure of FL2-14 comprising fluorosulfate scaffold FL2 (black) and tail group modification 14 (blue). (B) DMSO-normalized quantitative proteomics after 16 h of treatment with FL2-14 (10 μM) in RKO WT (n = 2). […] (C) Structural alignment of AlphaFold models of GSPT1 (AF-P15170-F1-model_v4 in gray) and GSPT2 (AF-Q8IYD1-F1-model_v4 in blue). (D) Validation of GSPT2 degradation by FL2-14. […] (E) Dose–response of FL2-14 in RKO and HEK293T cells. Cells were treated with the FL2-14 (0 to 10 μM) for 16 h. (F) Degradation of GSPT2^WT or GSPT2^G566N. […]\nAnalysis of targeted protein degradation of GSPT1 and GSPT2 via western blot For degradation assays 800 000 RKO WT or CRBN KO cells were seeded 1 day prior to the treatment in 6 well plates.\nThen, cells were treated with 10 µM of the compounds for 16 hours if not otherwise stated. Cells were harvested, lysed for 30 min at 37°C in lysis buffer (1x PBS, 1% SDS, 2 mM MgCl2, 1x Halt Protease inhibitor cocktail, 50 Units Benzonase) and cleared for 30 min at 18 000 x g at 4°C. Protein concentration was determined with the Pierce 660 nm Protein Assay using the Ionic Detergent Compatibility Reagent (Thermo Scientific). 10 µg total proteome were subjected to western blot analysis by adding 4x Bolt™ LDS Sample Buffer (Thermo Scientific). Samples were boiled at 95°C for 5 min and subjected to gel electrophoresis with Bolt™ 4‐12% Bis‐Tris Plus Gels (Thermo Scientific) with Bolt™ MES SDS Running Buffer (Thermo Scientific). Membranes were blocked with 5% fat‐free milk in TBS‐T (20 mM Tris, 150 mM NaCl, 0.1% Tween, pH 7.6) for 1 h at room temperature and washed subsequently 3x 5 min with TBS‐\nT. Afterwards, they were incubated for 1 h at room temperature with either GSPT1 antibody (Abcam ab49878, rabbit, […]\nrabbit, 1:10 000), CRBN (Cell Signaling Technologies, CST71810S, rabbit, 1:1000), or GAPDH (SantaCruz sc‐47724, mouse, 1:1 000). Followed by washing 3x 5 min with TBS‐T and incubation for 1 h at room temperature with either Goat ANTI‐RABBIT IgG StarBright™ Blue 700 (Bio‐Rad, #12004162, 1:10 000) or Goat anti‐Mouse IgG (H+L) Cross‐ Adsorbed Secondary Antibody, DyLight™ 800 (Bio‐Rad, STAR117D800GA, 1:10 000) fluorophore‐conjugated"}, "GSPT2 [3]": {"molecular_target": "T1, GSPT2", "experiment": "Western blot analysis of GSPT2 degradation in HEK293T cells", "type": "cell-based", "conditions": "0 to 10 μM, 16 h", "procedure": "as §1, with “Figure 3 FL2-14 is a selective GSPT2 molecular glue degrader. (A)” for “(A)”\nspectra were searched against the human proteome (Canonical, reviewed, 20 304 sequences) and appended known contaminants and streptavidin, with a maximum of two allowable miscleavage sites. The search was performed with full tryptic digestion. […] Peptide spectrum matches (PSMs) with precursor isolation interference values of > 70, average TMTpro reporter ion S/N < 10 and SPS Mass Matches < 65 % were excluded from quantification. Both unique and razor peptides were used for TMT quantification. […] Protein ratios are directly calculated from the grouped protein abundances using an ANOVA hypothesis test. Adjusted p‐values are calculated using the Benjamini‐Hochberg method. […]"}}, "data": [{"smiles": "CN(Cc1ncc(C2CC2)o1)S(=O)(=O)Oc1ccc(Nc2ccc3c(c2)C(=O)N(C2CCC(=O)NC2=O)C3=O)cc1", "note": "(stereo not shown) [FL2-14]", "values": [{"measurement": "EC50 at 72 h", "setting": "[1]; HEK293T cells", "result": "> 10", "unit": "µM"}, {"measurement": "EC50 at 72 h", "setting": "[1]; RKO WT cells", "result": "> 10", "unit": "µM"}, {"measurement": "treatment time at which GSPT2 degradation is apparent", "setting": "GSPT2 [2]; 10 µM, time-course in RKO and HEK293T cells", "result": 5, "unit": "h"}, {"measurement": "GSPT2 degradation in RKO CRBN KO cells", "setting": "GSPT2 [2]; RKO CRBN KO, 10 μM, 16 h", "result": "completely abrogated"}, {"measurement": "degradation of GSPT2 versus GSPT1 (Western blot)", "setting": "GSPT2 [2]; RKO WT, 10 μM, 16 h", "result": "preferentially degraded GSPT2 over GSPT1"}, {"measurement": "concentration range of GSPT2 degradation (dose-response)", "setting": "GSPT2 [2]; RKO, 0 to 10 μM, 16 h", "result": "submicromolar range"}, {"measurement": "GSPT2 degradation in HEK293T cells", "setting": "GSPT2 [3]", "result": "could also be observed in HEK293T cells"}]}]}
